These results are taken from US20040137426A1, “Gp41 peptides and methods based thereon for inhibiting HIV fusion to target cells” (priority 2002, published 2004).

One experiment relates to HIV-1 pseudovirus. Put plainly: Timing of peptide addition and inhibition of pseudovirus infection. The class given is cell-based.
The subject of experiment [1] is HIV-1. The settings on record: for activity compared with the new analogues of T-20, T-21 and DP219: qualitative comparison. On the procedure: Peptides were tested in vitro for inhibition of early steps in cell-free HIV-1 infection and direct cell-to-cell spread of virus using T-cell line-adapted and primary isolates and recombinant HIV-1 viruses pseudotyped for env using CCR5, CXCR4 or both coreceptors.
Selected de novo designed peptides according to the invention (S291, N36E, W37Q and W371) and the new analogues of T20, T21 and DP219 were evaluated for inhibition of both cell-free HIV-1 infection and of direct cell-to-cell spread using a range of T-cell line-adapted and primary isolates and recombinant HIV-1 pseudotyped for env derived from patient isolates of different clades.

For experiment [2], the system named is HIV-1. Particulars: for activity compared with T20 and T1249: across clades, Figs 5 and 6; for IC50: read-out: IC50 in hPBMCs, independent assays in hPBMCs (N36E 6, W37Q 5).
Description: The peptides were evaluated against two HIV-1 stains IIIB and BR92/92/021. These two stains were selected in part based on their co-receptor utilization preferences; HIV-1 IIIB utilizes the CXCR4 co-receptor whereas HIV-1 BR92 utilizes CCR5. To test anti-HIV efficacy, fresh Human Peripheral Blood Mononuclear Cells (PBMCs) were obtained from single, normal hepatitis and HIV-1 negative donors. The cells were stimulated by a using CD3+method. Drug testing was performed in a 96 well format in triplicate. Each plate contained control wells (cells+virus), experimental wells (drug+cells+virus) and compound control wells (drug+cells, to monitor cytotoxicity). The read-out for viral infectivity after seven days of infection was based on reverse transcriptase activity of cell free supernatant samples. Drug toxicity was determined in the control well by a standard assay using the tetrazolium compound, which was converted in live cells into a colored formazan product that can readily be monitored on the microtiter plate.
PBMCs were stimulated via the CD3 antigen that is part of the T cell receptor. […] The T cell preparation contains about 50% CD4+cells that are susceptible to HIV-1 infection. Therefore no further separation between CD4+ and CD8+cells is necessary.
The data were obtained according to the following protocol:
Pre-incubate diluted peptides (0 to 50 ug/ml) with virus strain
Add 3 day anti-CD3 stimulated human peripheral blood mononuclear cells (50,000/well)
Incubate 37° C. for 6 days in IL-2 containing media
Test cell-free culture supernatants for reverse transcriptase (RT) activity at day 6
Test cells in cultures for toxicity using an MTS (CellTiter96 Reagent Promega) staining for cell viability
All assay results shown were done in triplicate
A further experiment concerns JRFL (R5) pseudovirus. Description: Viral entry, Env pseudovirus with luciferase readout: JRFL. It counts as cell-based, HIV-1. The settings on record: from IC50 data of table 3. The protocol:
(§1) In preliminary experiments we tested the panel of peptides for inhibition of HIV-1 infectivity using a single CXCR4-using T cell line-adapted virus isolate: HIV-1IIIB. Serial dilutions of the peptides were added to the target cells immediately followed by virus. After 5-7 days culture, supernatant was tested for viral p24 activity using a sensitive p24 ELISA. […] These viruses carry a luciferase readout and are competent for a single cycle of replication only. We chose to test Env from […] viruses representing: X4 TCLA virus (HXB2); X4 primary isolate (WHO D clade); R5X4 dual tropic primary isolate (W61D) and R5 primary isolates (JRFL and Bal).

The subject of experiment [3] is HXB2 (X4 TCLA virus) pseudovirus. Description: Viral entry, Env pseudovirus with luciferase readout: HXB2. It counts as cell-based, HIV-1. The settings on record: from IC50 data of table 3. The protocol: as §1
The test system of experiment [4] is W61D (R5X4 dual tropic primary isolate) pseudovirus. Put plainly: Viral entry, Env pseudovirus with luciferase readout: W61D. The class given is cell-based, HIV-1. Particulars: for N36E on CCR5+ indicator cells. The protocol: as §1
The subject of a further experiment is HIV-1 IIIB. It counts as cell-based. Particulars: lab-adapted HIV-1 IIIB. On the procedure:
Both involved the culture of the virus with the peptide or its scrambled form for 1 hr at 37° C., 5% CO2 and then subsequent addition of target cells for 7 days. Inhibition was assessed using an enzyme-linked immunosorbent assay (ELISA) of viral core protein p24 antigen.

For experiment [5], the system named is WHO isolate Clade D (X4) pseudovirus. Put plainly: Viral entry, Env pseudovirus with luciferase readout: WHO isolate Clade D. The class given is cell-based, HIV-1. The settings on record: from IC50 data of table 3. The protocol: as §1
Experiment [6] deals with HIV-1 IIIB gp41 (HIV-1 IIIB). Description: cell-based or functional assay.
Experiment [7] has as its system HL2/3 cells expressing HIV-1IIIB Env fusing with MAGI-CCR5 cells. It counts as cell-based. The settings on record: MAGI-CCR5 / HL2/3; read-out: IC50 cell fusion assay. The protocol: A second panel of anti-HIV-1 peptides according to the invention was evaluated for using the MAGI-CCR5 antiviral assay and a gene reporter cell fusion assay. MAGI-CCR5 is an HIV-1 indicator cell line derived from HeLa cells that express CD4 and the HIV-1 coreceptors CCR5 and CXCR4. These cells contain a gene reporter cassette of β-galactosidase that is expressed from an HIV-1 LTR. Expression of the reporter gene is dependent on the production of HIV-1 tat that occurs following HIV-1 entry. The read-out for viral infectivity after two days of incubation is measurement of β-galactosidase expression detectable by chemoluminescence. The assay structure in the 96 well format as that used in the PBMC assay. The cell fusion assay uses the same indicator cell line (MAGI-CCR5), which is incubated with a HeLa cell based cell line HL2/3 that expresses HIV-1IIIB Env on its surface and contains Tat and Rev expression cassettes. When HL2/3 cells fuse with the MAGI-CCR5 cells, HIV-1 Tat is delivered into the indicator cells leading to activation of the β-galactosidase gene which is under the control of the HIV-1 LTR. The enzyme activity is read out in a similar fashion by chemoluminescence using the same assay structure as mentioned above. This assay is uniquely sensitive to entry inhibitors. […]

≈ marks a conversion by molar mass, not a printed value.

Turning to `CC[C@H](C)[C@H](NC(=O)[C@H](CC(C)C)NC(=O)[C@H](CO)NC(=O)[C@H](Cc1ccc(O)cc1)NC(=O)[C@@H](NC(=O)[C@H](CC(C)C)NC(=O)[C@H](CO)NC(=O)[C@@H](NC(=O)[C@H](Cc1ccc(O)cc1)NC(=O)[C@H](CC(N)=O)NC(=O)[C@H](CC(=O)O)NC(=O)[C@@H](NC(=O)[C@H](CCC(=O)O)NC(=O)[C@H](CCCNC(=N)N)NC(=O)[C@H](CCC(=O)O)NC(=O)[C@H](Cc1c[nH]c2ccccc12)NC(=O)[C@H](CCC(=O)O)NC(=O)[C@H](CCSC)NC(=O)[C@H](Cc1c[nH]c2ccccc12)NC(=O)[C@@H](NC(=O)[C@H](CCSC)NC(=O)[C@H](CC(N)=O)NC(=O)[C@@H](N)CC(N)=O)[C@@H](C)O)[C@@H](C)CC)[C@@H](C)O)[C@@H](C)CC)C(=O)N[C@@H](CCC(=O)O)C(=O)N[C@@H](CCC(=O)O)C(=O)N[C@@H](CO)C(=O)N[C@@H](CCC(N)=O)C(=O)N[C@@H](CC(N)=O)C(=O)N[C@@H](CCC(N)=O)C(=O)N[C@@H](CCC(N)=O)C(=O)N[C@@H](CCC(=O)O)C(=O)N[C@@H](CCCCN)C(=O)N[C@@H](CC(N)=O)C(=O)N[C@@H](CCC(=O)O)C(=O)N[C@@H](CCC(N)=O)C(=O)N[C@@H](CCC(=O)O)C(=O)O` [Peptide N36E], in the experiment on HIV-1 pseudovirus (cells washed before virus), the “inhibition, peptide preincubated with target cells then washed prior to addition of virus” value is on record as “no inhibitory effect”. Besides, the “inhibition, virus preincubated with cells for 1 h prior to addition of peptide” value with HIV-1 pseudovirus (peptide added 1 h after virus and cells) was “complete absence of inhibition”. Further, the “inhibitory effect, simultaneous mixing of virus, cells and peptide” value in the experiment with HIV-1 pseudovirus (simultaneous addition) is listed as “most pronounced inhibitory effect”. Further, the “inhibition, virus preincubated with peptide 1 h at 37° C. then washed by ultrafiltration prior to addition to cells” value in the experiment with HIV-1 pseudovirus (virus washed before cells) is listed as “weak but poorly reproducible inhibition”. Besides, in the experiment on HIV-1 [1], the “fold more potent than analogues Y36F, K42K and E30E, frequently” value came to 10 fold; the “activity compared with the new analogues of T-20, T-21 and DP219” value (“activity compared with the new analogues” for short) is given as “significantly greater potency”. In the experiment on HIV-1 [2], the “activity compared with T20 and T1249” value is “compare well to both T20 and to T1249”; the IC50 is 2 ± 1 nM. Also, in the experiment with JRFL (R5) pseudovirus, the “fold more active than Y36F, JRFL pseudovirus” value worked out at 80 fold. Also, the “fold more active than Y36F, HXB2 pseudovirus” value in experiment [3] is given as 5 fold. The “fold more active than Y36F, W61D pseudovirus” value in experiment [4] is on record as 18 fold.
Consider `CC[C@H](C)[C@H](NC(=O)[C@H](CCC(=O)O)NC(=O)[C@H](CCCNC(=N)N)NC(=O)[C@H](CCC(=O)O)NC(=O)[C@H](Cc1c[nH]c2ccccc12)NC(=O)[C@H](CCC(=O)O)NC(=O)[C@H](CCSC)NC(=O)[C@H](Cc1c[nH]c2ccccc12)NC(=O)[C@@H](NC(=O)[C@H](CCSC)NC(=O)[C@H](CC(N)=O)NC(=O)[C@H](CC(N)=O)NC(=O)[C@@H](N)Cc1c[nH]c2ccccc12)[C@@H](C)O)C(=O)N[C@@H](CC(=O)O)C(=O)N[C@@H](CC(N)=O)C(=O)N[C@@H](Cc1ccc(O)cc1)C(=O)N[C@H](C(=O)N[C@@H](CO)C(=O)N[C@@H](CC(C)C)C(=O)O)[C@@H](C)O` [Peptide W19L], for which the “MIC HIV-1IIIB infectivity” value in the experiment with HIV-1 IIIB was determined as 0.06 µg/mL (≈ 0.0238 µM).
For the compound `CC[C@H](C)[C@H](NC(=O)[C@H](CC(C)C)NC(=O)[C@H](CO)NC(=O)[C@H](Cc1ccc(O)cc1)NC(=O)[C@@H](NC(=O)[C@H](CC(C)C)NC(=O)[C@H](CO)NC(=O)[C@@H](NC(=O)[C@H](Cc1ccc(O)cc1)NC(=O)[C@H](CC(N)=O)NC(=O)[C@H](CC(=O)O)NC(=O)[C@@H](NC(=O)[C@H](CCC(=O)O)NC(=O)[C@H](CCCNC(=N)N)NC(=O)[C@H](CCC(=O)O)NC(=O)[C@H](Cc1c[nH]c2ccccc12)NC(=O)[C@H](CCC(=O)O)NC(=O)[C@H](CCSC)NC(=O)[C@H](Cc1c[nH]c2ccccc12)NC(=O)[C@@H](NC(=O)[C@H](CCSC)NC(=O)[C@H](CC(N)=O)NC(=O)[C@H](CC(N)=O)NC(=O)[C@H](Cc1c[nH]c2ccccc12)NC(=O)[C@@H](NC(=O)[C@H](CCC(N)=O)NC(=O)[C@H](CCC(=O)O)NC(=O)[C@H](CC(C)C)NC(=O)[C@H](CO)NC(=O)[C@H](CCCCN)NC(=O)[C@H](CC(N)=O)NC(=O)[C@H](CO)NC(=O)[C@@H](N)Cc1c[nH]c2ccccc12)[C@@H](C)CC)[C@@H](C)O)[C@@H](C)CC)[C@@H](C)O)[C@@H](C)CC)C(=O)N[C@@H](CCC(=O)O)C(=O)N[C@@H](CCC(=O)O)C(=O)N[C@@H](CO)C(=O)N[C@@H](CCC(N)=O)C(=O)O` [Peptide W37Q], in the experiment with HIV-1 [1], the “fold more potent than analogues Y36F, K42K and E30E, frequently” value turned out to be 10 fold; the “activity compared with the new analogues” value is “significantly greater potency”. In addition, in the experiment on HIV-1 [2], the “activity compared with T20 and T1249” value is “compare well to both T20 and to T1249”; the half-inhibitory concentration (IC50) was found to be 5 ± 2 nM. Besides, the “fold more active than Y36F, JRFL pseudovirus” value with JRFL (R5) pseudovirus was about 15 fold. For the same compound, the “fold more active than Y36F, WHO D clade pseudovirus” value in [5] is recorded as “approximately 22 fold”. In addition, the “fold more active than Y36F, W61D pseudovirus” value in experiment [4] was about 20 fold.
As to `CC[C@H](C)[C@H](NC(=O)[C@H](CC(C)C)NC(=O)[C@H](CO)NC(=O)[C@H](Cc1ccc(O)cc1)NC(=O)[C@@H](NC(=O)[C@H](CC(C)C)NC(=O)[C@H](CO)NC(=O)[C@@H](NC(=O)[C@H](Cc1ccc(O)cc1)NC(=O)[C@H](CC(N)=O)NC(=O)[C@H](CC(=O)O)NC(=O)[C@@H](NC(=O)[C@H](CCC(=O)O)NC(=O)[C@H](CCCNC(=N)N)NC(=O)[C@H](CCC(=O)O)NC(=O)[C@H](Cc1c[nH]c2ccccc12)NC(=O)[C@@H](N)CCC(=O)O)[C@@H](C)CC)[C@@H](C)O)[C@@H](C)CC)C(=O)N[C@@H](CCC(=O)O)C(=O)N[C@@H](CCC(=O)O)C(=O)N[C@@H](CO)C(=O)N[C@@H](CCC(N)=O)C(=O)N[C@@H](CC(N)=O)C(=O)N[C@@H](CCC(N)=O)C(=O)N[C@@H](CCC(N)=O)C(=O)N[C@@H](CCC(=O)O)C(=O)N[C@@H](CCCCN)C(=O)N[C@@H](CC(N)=O)C(=O)N[C@@H](CCC(=O)O)C(=O)N[C@@H](CCC(N)=O)C(=O)N[C@@H](CCC(=O)O)C(=O)O` [Synthesised DP219, reference compound], in the experiment on HIV-1 IIIB, the “ID50% HIV-1IIIB infectivity” value turned out to be 6.00 µg/mL (≈ 1.6 µM) and the “ID90 HIV-1IIIB infectivity” value was determined as 12.5 µg/mL (≈ 3.34 µM).
In experiment [6], Recombinant DP178 (peptide) registered an ID50%, HIV-1IIIB infectivity of 0.05 µg/mL; an ID90, HIV-1IIIB infectivity of 0.09 µg/mL; an MIC, HIV-1IIIB infectivity of 0.009 µg/mL.
For the compound T20 (peptide), the IC50, cell fusion assay (MAGI-CCR5 cells with HL2/3 cells expressing HIV-1IIIB Env) in experiment [6] amounted to 30 nM.
As for “WNASWSNKSLEQIWNNMTWMEWEREIDNYTSLIYSLI [Peptide W37I]”, the “activity compared with the new analogues” value with HIV-1 [1] is given as “broadly similar levels of activity”.
As to enfuvirtide, the half-maximal inhibitory concentration (IC50) in experiment [7] was about 30 nM.

The term IC50 denotes the concentration that gives 50% inhibition.
